Assays:
Rattus norvegicus = organism: Rattus norvegicus; experiment: Selectivity ratio of IC50 for rat Hao1 to IC50 for rat Hao2
[1] = biological target: T1, 2-Hydroxyacid oxidase 2 (Homo sapiens) (UniProt Q9NYQ3); experiment: Inhibition of human Hao2-mediated oxidation of 2-hydroxyoctanoic acid assessed as proportionate release of H2O2 at 1 uM
T1 sequence (whole entry): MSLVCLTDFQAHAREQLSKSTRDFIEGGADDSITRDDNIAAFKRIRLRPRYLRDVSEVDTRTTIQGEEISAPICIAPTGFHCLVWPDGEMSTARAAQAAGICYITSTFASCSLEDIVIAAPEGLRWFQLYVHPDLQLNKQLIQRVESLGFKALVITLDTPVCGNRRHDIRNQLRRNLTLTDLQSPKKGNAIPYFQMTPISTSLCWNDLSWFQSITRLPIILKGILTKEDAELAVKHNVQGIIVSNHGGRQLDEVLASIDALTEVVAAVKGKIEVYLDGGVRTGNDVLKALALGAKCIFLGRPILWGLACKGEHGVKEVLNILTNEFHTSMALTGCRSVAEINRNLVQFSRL

[2] = biological target: T1, 2-Hydroxyacid oxidase 2 (Homo sapiens); experiment: Inhibition of human Hao2-mediated oxidation of 2-hydroxyoctanoic acid assessed as proportionate release of H2O2 at 10 uM
[3] = biological target: T2, 2-Hydroxyacid oxidase 2 (Rattus norvegicus) (UniProt Q07523); experiment: Inhibition of rat Hao2-mediated oxidation of 2-hydroxyoctanoic acid assessed as proportionate release of H2O2 at 10 uM
T2 sequence (whole entry): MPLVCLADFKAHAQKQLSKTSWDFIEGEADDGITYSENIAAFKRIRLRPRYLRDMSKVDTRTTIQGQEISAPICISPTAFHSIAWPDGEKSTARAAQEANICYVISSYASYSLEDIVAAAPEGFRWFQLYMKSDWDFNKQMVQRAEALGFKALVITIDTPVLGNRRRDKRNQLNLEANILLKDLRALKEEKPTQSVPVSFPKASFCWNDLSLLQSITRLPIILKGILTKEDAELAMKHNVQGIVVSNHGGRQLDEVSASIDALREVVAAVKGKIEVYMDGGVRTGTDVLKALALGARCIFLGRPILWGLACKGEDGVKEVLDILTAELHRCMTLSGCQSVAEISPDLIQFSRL

[4] = biological target: T2, 2-Hydroxyacid oxidase 2 (Rattus norvegicus); experiment: Inhibition of rat Hao2-mediated oxidation of 2-hydroxyoctanoic acid assessed as proportionate release of H2O2 at 1 uM
2-Hydroxyacid oxidase 2 = biological target: T3, 2-Hydroxyacid oxidase 2 (Homo sapiens, UniProt Q9NYQ3); experiment: Inhibition of human Hao2-mediated oxidation of 2-hydroxyoctanoic acid assessed as proportionate release of H2O2
T3 sequence (Q9NYQ3 whole entry): T1 sequence (whole entry)

Row | Ratio IC50 (Rattus norvegicus) | inhibition [1] [%] | inhibition [2] [%] | inhibition [3] [%] | inhibition [4] [%] | IC50 (2-Hydroxyacid oxidase 2) [nM] | Structure (SMILES)
1 | > 150 | 19 | 55 | 65 | 13 |  | Cc1n[nH]c(C(=O)O)c1-c1ccc(-c2ccc(F)cc2)cc1
2 | > 150 | 0 | 6 | 85 | 33 |  | Cc1n[nH]c(C(=O)O)c1Cc1ccc(C#N)cc1
3 | > 150 | 3 | 22 | 69 | 40 |  | Cc1n[nH]c(C(=O)O)c1Cc1ccc(C(=O)O)cc1
4 | > 150 | 3 | 0 | 60 | 7 |  | Cc1n[nH]c(C(=O)O)c1Cc1cccc(C(=O)O)c1
5 | > 150 | 11 | 56 | 73 | 21 |  | Cc1n[nH]c(C(=O)O)c1Cc1ccccc1-c1ccc(F)cc1
6 | > 150 | 5 | 16 | 81 | 31 |  | Cc1n[nH]c(C(=O)O)c1CCc1ccc(F)cc1
7 |  |  |  | 79 | 35 | 950 | Cc1n[nH]c(C(=O)O)c1-c1cccc(-c2ccc(F)cc2)c1
8 | > 150 | 9 | 12 | 71 | 35 |  | Cc1n[nH]c(C(=O)O)c1Cc1ccc(C(F)(F)F)cc1
9 | > 150 | 9 | 49 | 69 | 10 |  | Cc1n[nH]c(C(=O)O)c1Cc1ccccc1Oc1ccccc1
10 | > 150 | 26 | 66 | 87 | 47 |  | Cc1n[nH]c(C(=O)O)c1Cc1cc2ccccc2o1

From ChEMBL document CHEMBL2169808, “Discovery of pyrazole carboxylic acids as potent inhibitors of rat long chain L-2-hydroxy acid oxidase” (Bioorg Med Chem Lett, 2012)
